Kd data for two compounds are collected here from article PMC3602205 (Chemico-biological interactions, 2013).

Assay [1] concerns the target T1, Ct-FDH (carboxy-terminal ALDH domain of 10-formyltetrahydrofolate dehydrogenase, Aldh1l1) (Rattus norvegicus, UniProt P28037, C707S).
T1 sequence (P28037 400-902 C707S): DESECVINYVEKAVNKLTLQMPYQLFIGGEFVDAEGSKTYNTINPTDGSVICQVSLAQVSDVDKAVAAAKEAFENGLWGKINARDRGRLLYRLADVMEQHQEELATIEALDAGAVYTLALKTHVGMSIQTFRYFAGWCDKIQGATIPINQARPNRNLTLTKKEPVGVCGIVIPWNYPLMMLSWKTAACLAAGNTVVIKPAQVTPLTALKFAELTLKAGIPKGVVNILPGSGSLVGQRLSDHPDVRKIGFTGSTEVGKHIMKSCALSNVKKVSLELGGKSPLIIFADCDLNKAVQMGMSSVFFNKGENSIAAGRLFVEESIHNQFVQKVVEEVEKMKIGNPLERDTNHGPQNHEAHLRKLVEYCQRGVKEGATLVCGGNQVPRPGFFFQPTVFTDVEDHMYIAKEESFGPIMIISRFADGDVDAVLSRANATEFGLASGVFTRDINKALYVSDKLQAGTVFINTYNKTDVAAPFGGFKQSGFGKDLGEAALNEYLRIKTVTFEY
The assay is described as follows: quenching of tryptophan fluorescence. The assay is classed as binding.

In assay [2] the target is T2, Ct-FDH (carboxy-terminal ALDH domain of 10-formyltetrahydrofolate dehydrogenase, Aldh1l1) (Rattus norvegicus, UniProt P28037).
T2 sequence (P28037 400-902): T1 sequence (P28037 400-902 C707S) with S308C
The assay is described as follows: quenching of tryptophan fluorescence. The format is binding.

Residue numbers refer to the chain shown, from its start.

As usually defined, the Kd is the constant that tells how readily two partners part at equilibrium. In assay [1], `NC(=O)c1ccc[n+]([C@@H]2O[C@H](COP(=O)(O)OP(=O)(O)OC[C@H]3O[C@@H](n4cnc5c(N)ncnc54)[C@H](OP(=O)(O)O)[C@@H]3O)[C@@H](O)[C@H]2O)c1` [NADP^+] registered a Kd of 11 ± 1.5 µM.
The compound `NC(=S)c1ccc[n+]([C@@H]2O[C@H](COP(=O)(O)OP(=O)(O)OC[C@H]3O[C@@H](n4cnc5c(N)ncnc54)[C@H](OP(=O)(O)O)[C@@H]3O)[C@@H](O)[C@H]2O)c1` [thio-NADP^+] had a dissociation constant (Kd) in assay [2] of 17 ± 0.8 µM.
